Literature values in patent US20150374878A1, “[…] FOR WOUND CARE” (AKESO BIOMEDICAL, INC., priority 2014, published 2015).

Settings: see U.S. Pat. No. 5,858,365 to Faller

CCCC(=O)O [butyric acid]
half-life in serum: about 2 minutes
